For 14 compounds, T/C results are on record in PubChem BioAssay AID256 (DTP/NCI, 2004).

Values joined by “and” are separate entries in the source; they are usually repeats but may differ in a detail not shown here. Equal entries are not always repeated. Toxic doses and inconclusive results are not listed.

For this assay, the system named is CD2F1 mice, L1210 leukemia ip, survival T/C. The assay can be described thus: NCI In Vivo Anticancer Drug Screen. Data for tumor model L1210 Leukemia (intraperitoneal) in CD2F1 (CDF1) mice. The note with it: higher = longer survival. The gist of the method: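 Transplantable tumor in mice; compound-treated vs vehicle-treated groups. Read-out = treated/control ratio of the measured endpoint.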

Setting [1] is: endpoint: mean survival time, dose: 50.0 mg/kg/injection, schedule: Q01DX009 (ip), vehicle: saline with Tween-80.
[2] abbreviates: endpoint: mean survival time, dose: 100.0 mg/kg/injection, schedule: Q01DX009 (ip), vehicle: saline with Tween-80.
Where [3] appears, read: endpoint: mean survival time, dose: 200.0 mg/kg/injection, schedule: Q01DX009 (ip), vehicle: saline with Tween-80.
Where [4] appears, read: endpoint: mean survival time, dose: 25.0 mg/kg/injection, schedule: Q01DX009 (ip), vehicle: saline with Tween-80.
Setting [5] is: endpoint: mean survival time, dose: 100.0 mg/kg/injection, schedule: Q04DX003 (ip), vehicle: saline with Tween-80.
Where [6] appears, read: endpoint: mean survival time, dose: 200.0 mg/kg/injection, schedule: Q04DX003 (ip), vehicle: saline with Tween-80.
[7] abbreviates: endpoint: mean survival time, dose: 400.0 mg/kg/injection, schedule: Q04DX003 (ip), vehicle: saline with Tween-80.

Consider `S=C1CCCCN1`, for which the T/C by setting is: (endpoint: median survival time, dose: 25.0 mg/kg/injection, schedule: Q01DX009 (ip), vehicle: distilled water + alcohol) 96 % of control; (endpoint: median survival time, dose: 50.0 mg/kg/injection, schedule: Q01DX009 (ip), vehicle: distilled water + alcohol) 94 % of control; (endpoint: median survival time, dose: 100.0 mg/kg/injection, schedule: Q01DX009 (ip), vehicle: distilled water + alcohol) 106 % of control; (endpoint: median survival time, dose: 200.0 mg/kg/injection, schedule: Q01DX009 (ip), vehicle: distilled water + alcohol) 112 % of control.
With `OCc1ccc(O)cc1`, the T/C runs as follows: (endpoint: mean survival time, dose: 100.0 mg/kg/injection, schedule: Q04DX003 (ip), vehicle: other) 100 % of control; (endpoint: mean survival time, dose: 200.0 mg/kg/injection, schedule: Q04DX003 (ip), vehicle: other) 95 % of control; (endpoint: mean survival time, dose: 400.0 mg/kg/injection, schedule: Q04DX003 (ip), vehicle: other) 94 % of control.
In the case of `CSc1ncc(N=C=O)c(=O)[nH]1`, the T/C (endpoint: mean survival time, dose: 100.0 mg/kg/injection, schedule: Q01DX001 (ip), vehicle: saline with Tween-80) was 94 % of control and the T/C (endpoint: mean survival time, dose: 200.0 mg/kg/injection, schedule: Q01DX001 (ip), vehicle: saline with Tween-80) was 94 % of control.
With `COc1ccccc1OCCN1Cc2ccccc2C1`, the T/C was 94 % of control under setting [1], 100 % of control under setting [2] and 97 % of control under setting [3].
As for `Cc1ccc(C2=C(Cl)C(=O)C(c3ccc(C)cc3)=C(Cl)C2=O)cc1`, the T/C (endpoint: mean survival time, dose: 75.0 mg/kg/injection, schedule: Q01DX001 (ip), vehicle: other) was 92 % of control; the T/C (endpoint: mean survival time, dose: 150.0 mg/kg/injection, schedule: Q01DX001 (ip), vehicle: other) is 92 % of control; the T/C (endpoint: mean survival time, dose: 300.0 mg/kg/injection, schedule: Q01DX001 (ip), vehicle: other) was 94 % of control.
As to `Cc1cc([NH-])c([NH-])cc1C.[Cl][Pt+2][Cl]`, the T/C (endpoint: mean survival time, dose: 2.5 mg/kg/injection, schedule: Q01DX009 (ip), vehicle: saline with Tween-80) is 120 % of control and 123 % of control; the T/C (endpoint: mean survival time, dose: 10.0 mg/kg/injection, schedule: Q01DX009 (ip), vehicle: saline with Tween-80) is 150 % of control and 168 % of control; the T/C (endpoint: mean survival time, dose: 10.0 mg/kg/injection, schedule: Q04DX003 (ip), vehicle: water) is 121 % of control; the T/C (endpoint: mean survival time, dose: 16.0 mg/kg/injection, schedule: Q04DX003 (ip), vehicle: water) is 116 % of control; the T/C (endpoint: mean survival time, dose: 24.0 mg/kg/injection, schedule: Q04DX003 (ip), vehicle: water) was 112 % of control.
In the case of `COc1cc(OC)c(NC(=O)ON2C(=O)c3ccccc3C2=O)cc1Cl`, the T/C (endpoint: mean survival time, dose: 0.19 mg/kg/injection, schedule: Q01DX009 (ip), vehicle: saline with Tween-80) is 97 % of control; the T/C (endpoint: mean survival time, dose: 0.39 mg/kg/injection, schedule: Q01DX009 (ip), vehicle: saline with Tween-80) was 94 % of control; the T/C (endpoint: mean survival time, dose: 0.78 mg/kg/injection, schedule: Q01DX009 (ip), vehicle: saline with Tween-80) was 100 % of control; the T/C (endpoint: mean survival time, dose: 1.56 mg/kg/injection, schedule: Q01DX009 (ip), vehicle: saline with Tween-80) was 97 % of control; the T/C (endpoint: mean survival time, dose: 3.12 mg/kg/injection, schedule: Q01DX009 (ip), vehicle: saline with Tween-80) was 116 % of control and 96 % of control; the T/C (endpoint: mean survival time, dose: 6.25 mg/kg/injection, schedule: Q01DX009 (ip), vehicle: saline with Tween-80) was 100 % of control. Further, the T/C is, setting by setting: (endpoint: mean survival time, dose: 12.5 mg/kg/injection, schedule: Q01DX009 (ip), vehicle: saline with Tween-80) 103 % of control; under setting [4], 103 % of control; under setting [1], 101 % of control; under setting [2], 103 % of control.
On to `CCN(CC)CC(=O)O[C@]1(CC)C(=O)OCc2c1cc1n(c2=O)Cc2cc3ccccc3nc2-1`, for which the T/C by setting is: (endpoint: median survival time, dose: 1.0 mg/kg/injection, schedule: Q01DX009 (ip), vehicle: water) 124 % of control and 109 % of control; (endpoint: median survival time, dose: 3.75 mg/kg/injection, schedule: Q04DX002 (ip), vehicle: water) 114 % of control and 109 % of control; (endpoint: median survival time, dose: 3.75 mg/kg/injection, schedule: Q04HX004 (iv), vehicle: other) 150 % of control; (endpoint: median survival time, dose: 4.0 mg/kg/injection, schedule: Q01DX009 (ip), vehicle: water) 154 % of control and 163 % of control; (endpoint: median survival time, dose: 7.5 mg/kg/injection, schedule: Q04DX002 (ip), vehicle: water) 124 % of control; (endpoint: median survival time, dose: 7.5 mg/kg/injection, schedule: Q04HX004 (iv), vehicle: dextrose) 183 % of control. The T/C was 175 % of control (endpoint: median survival time, dose: 7.5 mg/kg/injection, schedule: Q04HX004 (iv), vehicle: other); 113 % of control (endpoint: median survival time, dose: 8.0 mg/kg/injection, schedule: Q01DX009 (ip), vehicle: water); 157 % of control (endpoint: median survival time, dose: 15.0 mg/kg/injection, schedule: Q04DX002 (ip), vehicle: water); 218 % of control (endpoint: median survival time, dose: 15.0 mg/kg/injection, schedule: Q04HX004 (iv), vehicle: dextrose); 203 % of control (endpoint: median survival time, dose: 15.0 mg/kg/injection, schedule: Q04HX004 (iv), vehicle: other); 223 % of control and 256 % of control (endpoint: median survival time, dose: 30.0 mg/kg/injection, schedule: Q04DX002 (ip), vehicle: water). The T/C (endpoint: median survival time, dose: 30.0 mg/kg/injection, schedule: Q04HX004 (iv), vehicle: dextrose) was 204 % of control and the T/C (endpoint: median survival time, dose: 30.0 mg/kg/injection, schedule: Q04HX004 (iv), vehicle: other) is 268 % of control.
In the case of `O=c1nc(-c2ccccc2)c(-c2ccccc2)n[nH]1`, the T/C (endpoint: mean survival time, dose: 100.0 mg/kg/injection, schedule: Q04DX003 (ip), vehicle: saline) is 97 % of control and the T/C (endpoint: mean survival time, dose: 200.0 mg/kg/injection, schedule: Q04DX003 (ip), vehicle: saline) is 94 % of control.
As to `NC(=O)c1cc(N2CC2)c([N+](=O)[O-])cc1[N+](=O)[O-]`, the T/C under setting [4] was 114 % of control; the T/C (endpoint: mean survival time, dose: 25.0 mg/kg/injection, schedule: Q04DX003 (ip), vehicle: saline with Tween-80) is 110 % of control; the T/C under setting [1] was 115 % of control; the T/C (endpoint: mean survival time, dose: 50.0 mg/kg/injection, schedule: Q04DX003 (ip), vehicle: saline with Tween-80) was 97 % of control; the T/C under setting [5] is 106 % of control.
For the compound `NC(CC(=O)NC(=O)OCc1ccccc1)C(=O)O` (stereo not drawn), the T/C under setting [2] was 100 % of control; the T/C under setting [5] was 101 % of control; the T/C under setting [3] is 102 % of control; the T/C under setting [6] was 101 % of control; the T/C (endpoint: mean survival time, dose: 400.0 mg/kg/injection, schedule: Q01DX009 (ip), vehicle: saline with Tween-80) is 102 % of control; the T/C under setting [7] is 98 % of control.
In the case of `O=P(=O)OP(=O)=O.[O]=[W](=[O])=[O]`, the T/C was 92 % of control under setting [2], 100 % of control under setting [5], 100 % of control under setting [6] and 102 % of control under setting [7].
For the compound `COc1ccc(CCN(C=O)c2ccc(OC)c(OC)c2)cc1OC`, the T/C is, setting by setting: (endpoint: mean survival time, dose: 12.5 mg/kg/injection, schedule: Q01DX009 (ip), vehicle: water) 96 % of control; (endpoint: mean survival time, dose: 25.0 mg/kg/injection, schedule: Q01DX009 (ip), vehicle: water) 98 % of control; (endpoint: mean survival time, dose: 50.0 mg/kg/injection, schedule: Q01DX009 (ip), vehicle: water) 98 % of control; (endpoint: mean survival time, dose: 100.0 mg/kg/injection, schedule: Q01DX009 (ip), vehicle: water) 100 % of control; (endpoint: mean survival time, dose: 200.0 mg/kg/injection, schedule: Q01DX009 (ip), vehicle: water) 100 % of control.
On to `CO[C@@]12[C@@H]3N[C@@H]3CN1C1=C(C(=O)C(N3CCCC3)=C(C)C1=O)[C@@H]2COC(N)=O`, for which the T/C by setting is: (endpoint: median survival time, dose: 3.12 mg/kg/injection, schedule: Q01DX001 (ip), vehicle: saline with Tween-80) 165 % of control; (endpoint: median survival time, dose: 6.26 mg/kg/injection, schedule: Q01DX001 (ip), vehicle: saline with Tween-80) 151 % of control; (endpoint: median survival time, dose: 12.0 mg/kg/injection, schedule: Q01DX001 (ip), vehicle: saline with Tween-80) 152 % of control and 197 % of control; (endpoint: median survival time, dose: 12.5 mg/kg/injection, schedule: Q01DX001 (ip), vehicle: saline with Tween-80) 370 % of control; (endpoint: median survival time, dose: 24.0 mg/kg/injection, schedule: Q01DX001 (ip), vehicle: saline with Tween-80) 171 % of control and 326 % of control; (endpoint: median survival time, dose: 25.0 mg/kg/injection, schedule: Q01DX001 (ip), vehicle: saline with Tween-80) 111 % of control. Further, the T/C (endpoint: median survival time, dose: 50.0 mg/kg/injection, schedule: Q01DX001 (ip), vehicle: saline with Tween-80) is 91 % of control.
